The values that follow come from patent publication US20230212225A1, “PEPTIDE COMPOSTIONS AND METHODS FOR TREATING TAUOPATHIES” (AXOLTIS PHARMA, priority 2019, published 2023).

For series [1], the system named is Aβ25-35-induced long-term memory deficits. The series is described as follows: Step-through passive avoidance test (STPA), D09-D10. The series is classed as in vivo, mice.
Series [2] has as its system Aβ25-35-induced short-term memory deficits. Nature of the series: Spontaneous alternation performance (Y-maze), treatment started 1 hour after Aβ25-35 injection, tested D08. Format: in vivo, mice. The note with it: for Y-maze % (Sc.Aβ / Vhc = 100) / Y-maze Mean, percentage of alternation: D08.
Series [3] shares this test system. The series is described as follows: Long-term study (120 days): weekly Y-maze, NX218 and/or DPZ based treatments. The series is classed as in vivo, mice. On the procedure:
To investigate the potential of NX218 treatment to maintain cognitive restoration for a longer duration and to work as a 2nd line treatment when DPZ lose its activity: a long-term study (120 days) was performed in the Aβ25-35 mouse model of Tauopathies.
Mice were assigned to 6 treatment groups with 5-6 animals per group as described below.
From D01 until D120, mice of groups 1 and 2 were administered IP once a day (o.d.) with vehicle (water for injection).
Test compound NX218: • From D11 until D38, mice of group 3 were administered IP o.d. with NX218 at 2 mg/kg (mice were not treated with vehicle from D01 until D10). • From D01 until D120, mice of group 4 were administered IP o.d. with NX218 at 2 mg/kg.
DPZ rescued by test compound NX218: • From D01, mice of group 5 were administered PO by gavage o.d with DPZ at its active dose (1 mg/kg) until its effect disappears. Its efficacy disappeared on D36. DPZ was administered until D43 and then from D44, NX218 replaced DPZ until D78 via IP administration once a day at its active dose (2 mg/kg). • From D79 until D99: NX218 was administered via IP administration o.d. at a higher dose (4 mg/kg). • From D100 until D113 NX218 was administered via IP administration o.d. at a higher dose (8 mg/kg). • Administration of NX218 was stopped from D114 until animals were sacrificed.
Test compound NX218 in combination with DPZ: • From D01 until D120, mice of group 6 were co-administered with NX218 and DPZ at their respective subactive doses: • NX218: IP o.d., 0.1 mg/kg • DPZ: PO o.d., 0.25 mg/kg
All groups performed one behavioral test every week starting on D08 (7 days after Aβ25-35 peptide injection) to monitor the effects of the compounds:
Spontaneous alternation procedure in the Y-maze (YM, assessing spatial short-term/working memory as described in example 3) on D08, D15, D22, D29, D36, D43, D50, D57, D64, D71, D78, D85, D92, D99, D106, D113 and D120.

A further series is described as follows: PK study in monkey. Format: in vivo. The note with it: for half-life: plasma, iv, 10 mg/kg. On the procedure:
(§1) Therefore NX210 PK in animals is followed by the measurement of its cyclic form NX218. First a preliminary PK study in rat was performed in order to validate the method for detecting NX218 in plasma then translated to monkey by performing a more robust PK study with repeated experiments. All PK studies were performed with NaCl 0.9% as vehicle.
In the 3 monkeys tested, data were reproducible after repeated testing at different days (D22, D37 and D51), after bolus IV injection of 10 mg/kg of NX210.

A short description of series [4]: Preliminary PK study in rat. Format: in vivo. The note with it: slow bolus IV 49 mg/kg of NX210. On the procedure:
as §1

[5] abbreviates: once a day, NX210 0.1 mg/kg, NX218 0.1 mg/kg, DPZ 0.25 mg/kg.
Where [6] appears, read: monkey plasma NX218 after bolus IV 10 mg/kg NX210, mean.

Structures are written as SMILES. Read-outs that look alike come from different tables or passages of the source. Where a SMILES comes first, the peptide text is derived from it. Bridges are numbered along the chain shown (N, C = ends).

On to `COc1cc2c(cc1OC)C(=O)C(CC1CCN(Cc3ccccc3)CC1)C2` (centres unmarked) [DPZ, Donepezil, reference compound], for which, in series [1] (PO 0.25 mg/kg once a day), the “EL % (Sc.Aβ / Vhc = 100)” value turned out to be 445%; the “EL Mean, escape latency, retention session” value is 88.67 s; the “STL % (Sc.Aβ / Vhc = 100)” value is listed as 39%; the “STL Mean, step-through latency, retention session” value came out at 109.33 s. In series [1] (PO 1 mg/kg once a day), the “EL % (Sc.Aβ / Vhc = 100)” value is recorded as 122%; the “EL Mean, escape latency, retention session” value was 24.25 s; the “STL % (Sc.Aβ / Vhc = 100)” value came to 94%; the “STL Mean, step-through latency, retention session” value is 265.83 s. The “effect on contextual long-term memory deficits (STL and EL) at subactive dose, in words” value in series [1] (setting [5]) is given as “do not impede”. In series [2] (PO 0.25 mg/kg once a day), the “Y-maze % (Sc.Aβ / Vhc = 100)” value turned out to be 56% and the “Y-maze Mean, percentage of alternation” value came to 41.82%. Further, in series [2] (PO 1 mg/kg once a day), the “Y-maze % (Sc.Aβ / Vhc = 100)” value is listed as 93% and the “Y-maze Mean, percentage of alternation” value is listed as 68.90%. For the same compound, the “effect on Aβ25-35-induced short-term memory deficits (Y-maze) at subactive dose, in words” value in series [2] (setting [5]) is recorded as “do not impede”. Besides, the “duration of efficacy (Y-maze), in words” value in series [3] (Group 5, DPZ PO 1 mg/kg o.d.) is “efficient only until D36”. In series [3] (Group 5, after 4 weeks of DPZ treatment), the “% of alternation at DPZ resistance” value is reported as 37%. For the same compound, the “Y-maze (D43) Mean (percentage of alternation)” value in series [3] (Group 5: DPZ 1 mg/kg PO o.d. D01-D43, tested D43) turned out to be 38.73%. Besides, in series [3] (Group 5: DPZ 1 mg/kg PO o.d. D01-D43, tested D43, Group 1 = 100), the “Y-maze (D43) %” value turned out to be 52%. In series [3] (Group 5: DPZ 1 mg/kg PO o.d. from D01, tested D08), the “Y-maze (D08) Mean, percentage of alternation” value is reported as 72.08%. Moreover, the “Y-maze (D08) %” value in series [3] (Group 5: DPZ 1 mg/kg PO o.d. from D01, tested D08, Group 1 = 100) is recorded as 98%. Moreover, the “Y-maze (D15) Mean, percentage of alternation” value in series [3] (Group 5: DPZ 1 mg/kg PO o.d. from D01, tested D15) turned out to be 76.00%. The “Y-maze (D15) %” value in series [3] (Group 5: DPZ 1 mg/kg PO o.d. from D01, tested D15, Group 1 = 100) stood at 98%. For the same compound, in series [3] (Group 5: DPZ 1 mg/kg PO o.d. from D01, tested D22), the “Y-maze (D22) Mean, percentage of alternation” value worked out at 79.07%. Moreover, in series [3] (Group 5: DPZ 1 mg/kg PO o.d. from D01, tested D22, Group 1 = 100), the “Y-maze (D22) %” value came to 106%. Also, the “Y-maze (D29) Mean, percentage of alternation” value in series [3] (Group 5: DPZ 1 mg/kg PO o.d. from D01, tested D29) amounted to 62.05%. Besides, the “Y-maze (D29) %” value in series [3] (Group 5: DPZ 1 mg/kg PO o.d. from D01, tested D29, Group 1 = 100) was 80%. Also, the “Y-maze (D36) Mean (percentage of alternation)” value in series [3] (Group 5: DPZ 1 mg/kg PO o.d. from D01, tested D36) was 36.23%. The “Y-maze (D36) %” value in series [3] (Group 5: DPZ 1 mg/kg PO o.d. from D01, tested D36, Group 1 = 100) is on record as 49%.

The AUC is the area under the concentration-time curve, a measure of exposure. As usually defined, the AUC(0-inf) is total exposure, with the tail of the curve extrapolated. What is called Cmax is the maximum level reached in the sampled fluid or tissue. One may read the Tmax as the time from dosing to the highest level. One may read the clearance as a measure of how efficiently the substance is removed, as volume per time. `N=C(N)NCCC[C@@H]1NC(=O)[C@H](CO)NC(=O)[C@@H](NC(=O)[C@H](CO)NC(=O)[C@H](CO)NC(=O)[C@H](Cc2c[nH]c3ccccc23)NC(=O)CNC(=O)[C@H](CO)NC(=O)[C@@H](N)Cc2c[nH]c3ccccc23)CSSC[C@@H](C(=O)NCC(=O)O)NC(=O)[C@H](CO)NC1=O` [NX218, W-S-G-W-S-S-C-S-R-S-C-G] (H-WSGWSSCSRSCG-OH; disulfide 7-11; N-terminus and C-terminus assumed): in “PK study in monkey” (setting [6]), the exposure (AUC) is 960 ng·h/mL, the AUC(0-inf) is 1060 ng·h/mL, the Cmax was determined as 19300 ng/mL and the Tmax came to 0 h. In the series “PK study in monkey” (setting [6]), the clearance worked out at 190 mL/min/kg. The Vd in the series “PK study in monkey” (monkey plasma NX218 after bolus IV 10 mg/kg NX210, mean, read-out: VSS) is 0.0936 L/kg. Also, in “PK study in monkey” (monkey, bolus IV 10 mg/kg of NX210), the “plasma concentration course after injection, in words” value is given as “rapidly decreased up to 30 minutes”. Also, the half-life in the series “PK study in monkey” (monkey, monkey plasma NX218 after bolus IV 10 mg/kg NX210, mean, read-out: t½) stood at 12.7 min. The half-life in the series “PK study in monkey” (monkey, monkey, bolus IV 10 mg/kg NX210, NX218 measured, read-out: half-life) is roughly 12 min. For the same compound, the “time after injection from which NX218 became impossible to quantify in plasma” value in series [4] was determined as 3 h.
